Our source for the IC50 values is BindingDB's records for doi:10.1021/acs.biochem.6b00943 (University of Maryland, 2017).

Where “and” joins values, the source holds several entries; their conditions need not be identical. Equal entries are not always repeated.

This assay addresses Reverse transcriptase protein (Human immunodeficiency virus 1, UniProt Q9WJQ1). In words: HIV-1 RT Inhibitory Assay. The note with it: 25 °C. The method, then: The final pH of the reactions was 7.7. After extension for 3 min, the reactions were stopped by adding 12.5 μL of 2× gel loading buffer and the samples were resolved in a 16% denaturing polyacrylamide−7 M urea gel.

What is called IC50 is the concentration that gives 50% inhibition. With `Cc1ccnc2c1NC(=O)c1cccnc1N2C1CC1` [BI-RG-587], the IC50 was 16 µM and 4.3 µM.
